This is an account of results in patent publication US20100197714A1, “SPIRO-PYRANO-PYRAZOLE DERIVATIVES” (priority 2007, published 2010).

A value given as a limit tells only on which side of the number the result lay.

For assay [1], the target named is T1, σ1-receptor (Cavia porcellus, UniProt Q60492). In words: Sigma 1 (Version B) radioligand binding, [3H]-(+)-pentazocine, guinea pig brain preparation. Set-up: the σ1-receptor preparation was prepared from guinea pig brain; from tissue; host or cells: guinea pig brain membrane homogenate. The procedure: In brief the σ1-receptor preparation was prepared from guinea pig brain. The brains were homogenized in 5 to 6 times of volume sucrose solution (0.32M) and homogenized. The homogenate was centrifuged at 2900 rpm, 4° C., 10 min). the supernatant was centrifuged again (23500×g, 4° C., 20 min). The pellet was resuspended in Tris-buffer, incubated for 30 min at room temperature and centrifuged f (23500×g, 4° C., 20 min). The pellet was resuspended in cold TRIS-buffer and homogenized. Then the protein content was measured (approx. 1.5 mg/mL) and the homogenate frozen at −80° C. for later use.
T1 sequence (Q60492 whole entry): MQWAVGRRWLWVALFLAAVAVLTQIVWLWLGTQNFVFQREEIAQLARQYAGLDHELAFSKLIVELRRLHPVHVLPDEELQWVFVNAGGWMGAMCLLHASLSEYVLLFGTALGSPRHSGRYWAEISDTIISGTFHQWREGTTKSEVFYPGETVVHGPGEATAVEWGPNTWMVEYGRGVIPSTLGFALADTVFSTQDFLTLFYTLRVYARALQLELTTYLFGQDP
The radioligand used was […]-(+)-Pentazocin in TRIS-buffer. In a volume of 200 μL 50 μL TRIS-buffer, 50 μL compound solution of varying concentration, 50 μL radioligand-solution (8 nM; resulting in 2 nM in the assay) and finally 50 μL of receptor preparation (approx. 1.5 mg/mL) were given into a well of a microplate equipped with a filter. The plate was closed and stirred for 2.5 h at 37° C. and 500 rpm. Following that the solvents were removed by a harvester through the filter. After rinsing with H2O the filter was measured in a scintillation counter ([^3H]-protocol).

Assay [2] concerns the target T2, σ2-receptor (Rattus norvegicus, UniProt Q5U3Y7).
T2 construct: the σ2-Receptorpreparation was prepared from rat liver; from tissue; host or cells: rat liver membrane homogenate
T2 sequence (Q5U3Y7 1-176): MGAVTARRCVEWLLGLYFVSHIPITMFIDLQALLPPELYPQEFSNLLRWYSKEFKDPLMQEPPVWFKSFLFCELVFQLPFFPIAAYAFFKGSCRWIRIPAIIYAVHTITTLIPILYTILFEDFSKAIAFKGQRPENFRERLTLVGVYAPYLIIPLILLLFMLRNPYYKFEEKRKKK
As to the kind of experiment: Sigma 2 (Version B) radioligand binding, [3H]-ditolylguanidine, rat liver preparation, σ1 sites masked with (+)-pentazocine. Conditions: for Ki: [3H]-ditolylguanidine 3 nM. On the procedure:
In brief the σ2-Receptorpreparation was prepared from rat liver. The livers were homogenized in 5 to 6 times of volume sucrose solution (0.32M) and homogenized. The homogenate was centrifuged at 2900 rpm, 4° C., 10 min). the supernatant was centrifuged again (31000×g, 4° C., 20 min). The pellet was resuspended in TRIS-buffer, incubated for 30 min at room temperature while stirring and centrifuged f (31000×g, 4° C., 20 min). The pellet was resuspended in cold TRIS-buffer pH 8 and homogenized. Then the protein content was measured (approx. 2 mg/mL) and the homogenate frozen at −80° C. for later use.
The radioligand used was [^3H]-Ditolylguanidin in TRIS-buffer pH 8. The σ1-receptor binding sites were masked through (+)-Pentazocin-solution in TRIS-Puffer pH 8.
In a volume of 200 μL 50 μL compound solution of varying concentration, 50 μL (+)-Pentazocin-solution (2 μM; resulting in 500 nM in the assay), 50 μL radioligand-solution (12 nM; resulting in 3 nM in the assay) and finally 50 μL of receptor preparation (approx. 2 mg/mL) were given into a well of a microplate equipped with a filter. The plate was closed and stirred for 2 h at room temperature and 500 rpm. Following that the solvents were removed by a harvester through the filter. After rinsing with H2O the filter was measured in a scintillation counter ([^3H]-protocol).

Assay [3] deals with T1, σ1-receptor. As to the kind of experiment: Sigma-1 (Version A) radioligand binding, [3H](+)-pentazocine, guinea pig brain membranes.
Protocol: Brain membrane preparation and binding assays for the σ1-receptor were performed as described (DeHaven-Hudkins et al., 1992) with some modifications. In brief, guinea pig brains were homogenized in 10 vols. […] The homogenate was centrifuged at 1000 g for 10 min at 4° C. and the supernatants collected and centrifuged again at 48000 g for 15 min at 4° C.
Each assay tube contained 10 μL of [^3H](+)-pentazocine (final concentration of 0.5 nM), 900 μL of the tissue suspension to a final assay volume of 1 mL and a final tissue concentration of approximately 30 mg tissue net weight/mL. […] All tubes were incubated at 37° C. for 150 min before termination of the reaction by rapid filtration over Schleicher & Schuell GF 3362 glass fibre filters [previously soaked in a solution of 0.5% polyethylenimine for at least 1 h]. […] Following addition of scintillation cocktail, the samples were allowed to equilibrate overnight. The amount of bound radioactivity was determined by liquid scintillation spectrometry using a Wallac Winspectral 1414 liquid scintillation counter.

As to `CCCCN1CCC2(CC1)OC(OC)c1c2cnn1-c1ccccc1` (stereo not shown) [Example 4, 1-Butyl-6′-methoxy-1′-phenyl-4′,6′-dihydro-1′H-spiro[piperidin-4,4′-furo[3,4-c]pyrazole]], the Ki in assay [1] (version B, guinea pig brain, [3H]-(+)-pentazocine 2 nM, read-out: Binding σ1 Ki) worked out at 1.28 nM; in assay [2], 1050 nM; in assay [3] it was 1.2 nM.
Regarding `COC1Cc2c(cnn2-c2ccccc2)C2(CCN(C(C)C)CC2)O1` (stereo not shown) [Example 8, 1-Isopropyl-6′-methoxy-1′-phenyl-6′,7′-dihydro-1′H-spiro[piperidin-4,4′ pyrano[4,3-c]pyrazole]], the Ki was 3210 nM in assay [2] and above 100 nM in assay [3].
Regarding `COC1Cc2c(cnn2-c2ccccc2)C2(CCN(CC(C)C)CC2)O1` (stereo not shown) [Example 10, 1-Isobutyl-6′-methoxy-1′-phenyl-6′,7′-dihydro-1′H-spiro[piperidin-4,4′-pyrano[4,3-c]pyrazole]], the Ki worked out at 933 nM in assay [2] and 9.4 nM in assay [3].
Turning to `COC1Cc2c(cnn2-c2ccccc2)C2(CCN(CCC(C)C)CC2)O1` (stereo not shown) [Example 12, 1-Isopentyl-6′-methoxy-1′-phenyl-6′,7′-dihydro-1′H-spiro[piperidin-4,4′-pyrano[4,3-c]pyrazole]], the Ki in assay [1] came out at 0.97 nM; in assay [2], 316 nM; in assay [3] it was 2.5 nM.
On to `COC1Cc2c(cnn2-c2ccccc2)C2(CCN(CC=C(C)C)CC2)O1` (stereo not shown) [Example 13, 6′-Methoxy-1-(3-methylbut-2-en-1-yl)-1′-phenyl-6′,7′-dihydro-1′H-spiro[piperidin-4,4′ pyrano[4,3-c]pyrazole]], for which the Ki in assay [1] was found to be 1.64 nM; in assay [3], 7.3 nM. The compound also showed an inhibition at 1 µM in assay [2] (compound at 1 μM) of 3%.
For the compound `CCCCCCCCN1CCC2(CC1)OC(OC)Cc1c2cnn1-c1ccccc1` (stereo not shown) [Example 14, 6′-Methoxy-1-octyl-1′-phenyl-6′,7′-dihydro-1′H-spiro[piperidin-4,4′-pyrano[4,3-c]pyrazole]], the Ki in assay [1] amounted to 2.86 nM; in assay [2], 209 nM; in assay [3], 41 nM.
As to `COC1Cc2c(cnn2-c2ccccc2)C2(CCN(CC3CCCCC3)CC2)O1` (stereo not shown) [Example 15, 1-(Cyclohexan-1-ylmethyl)-6′-methoxy-1′-phenyl-6′,7′-dihydro-1′H-spiro[piperidin-4,4′-pyrano[4,3-c]pyrazole]], the values for the Ki in assay [1], in assay [2] and in assay [3] were 0.55 nM, 109 nM and 7.9 nM, respectively.
The like results for `COC1Cc2c(cnn2-c2ccccc2)C2(CCN(CCCCc3ccccc3)CC2)O1` (stereo not shown) [Example 18, 6′-Methoxy-1′-phenyl-1-(4-phenylbutyl)-6′,7′-dihydro-1′H-spiro[piperidin-4,4′-pyrano[4,3-c]pyrazole]] were, in that order, 3.22 nM, 428 nM and 15.7 nM.
The like results for `COC1Cc2c(cnn2-c2ccccc2)C2(CCN(Cc3ccco3)CC2)O1` (stereo not shown) [Example 19, 1-(Furan-2-ylmethyl)-6′-methoxy-1′-phenyl-6′,7′-dihydro-1′H-spiro[piperidin-4,4′-pyrano[4,3-c]pyrazole]] were, in that order, 2.21 nM, 5220 nM and 3.8 nM.
The like results for `COC1Cc2c(cnn2-c2ccccc2)C2(CCN(Cc3ccc(F)cc3)CC2)O1` (stereo not shown) [Example 21, 1-(4-Fluorbenzyl)-6′-methoxy-1′-phenyl-6′,7′-dihydro-1′H-spiro[piperidin-4,4′-pyrano[4,3-c]pyrazole]] were, in that order, 0.94 nM, 687 nM and 7.7 nM.
